The source of these data is US10981932B2, “Macrocyclic indole derivatives” (Bayer Aktiengesellschaft, priority 2016, dated 2021).

The term EC50 denotes the concentration needed to bring the measured effect to its halfway point. A lower EC50 goes with an effect from little substance.

Read-outs that look alike come from different tables or passages of the source.

Data set [1] concerns OPM2. The data set can be described thus: Anti-proliferative effect (CellTiter-Glo, 72 h), OPM2. The format is cell-based. Particulars: OPM2 cells, median, read-out: IC50 antiproliferation assay OPM2 [M] (median). The procedure, abridged:
(§1)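 Endpoint: CellTiter-Glo luminescence, 10 min after reagent addition. Treatment ran 72 h at 37 °C, humidified. Growth was referenced to a separately plated day 0 plate.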
In general terms: In ATP-based viability assays light output follows the ATP content of the culture.

Data set [2] relates to SUDHL10. The data set can be described thus: Anti-proliferative effect (CellTiter-Glo, 72 h), SUDHL10. The format is cell-based. Particulars: SUDHL10 cells, antiproliferation, 72 h incubation, median, read-out: Antiproli SUDHL10 [M] (median). The gist of the method:
as §1

The target of data set [3] is MCL-1 (Homo sapiens, UniProt Q07820). The data set can be described thus: Protein-protein interaction assay MCL-1/Noxa BH3 peptide (MCL-1 assay), TR-FRET. In kind it is binding. Particulars: MBP-MCL-1 / Noxa BH3-derived peptide, median. The gist of the method: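 Steady-state competition, MCL-1/Noxa BH3, TR-FRET readout; 1 nM MBP-MCL-1, 11-point dose series 0.1 nM–20 μM; overnight 4 °C equilibration; 4-parameter IC50.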
On the technique in general: In TR-FRET formats the signal depends on donor and acceptor labels being close together.

For data set [4], the system named is SUDHL5. The data set can be described thus: Induction of cytotoxicity (CellTiter-Glo, 5 h), SUDHL5.
Data set [5] has as its system SUDHL5. The data set can be described thus: Induction of caspase-3/7 activity (Caspase-Glo 3/7), SUDHL5. The format is cell-based. Particulars: caspase-3/7 induction, SUDHL5 cells, 3 h treatment, median. The gist of the method:
(§2)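 A 3 h, 37 °C compound incubation precedes the Caspase-Glo 3/7 read. After subtracting medium-only signal, EC50s are fitted against the reference compound's maximal caspase induction.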

The test system of data set [6] is A2780. The data set can be described thus: Anti-proliferative effect (CellTiter-Glo, 72 h), A2780. In kind it is cell-based. Particulars: A2780 cells, median, read-out: IC50 antiproliferation assay A2780 [M] (median). The procedure, abridged: as §1
Data set [7] deals with SUDHL10. The data set can be described thus: Induction of cytotoxicity (CellTiter-Glo, 5 h), SUDHL10.
Data set [8] has as its system SUDHL10. The data set can be described thus: Induction of caspase-3/7 activity (Caspase-Glo 3/7), SUDHL10. Particulars: caspase-3/7 induction, SUDHL10 cells, 3 h treatment, median. The format is cell-based. The procedure, abridged: as §2
For data set [9], the system named is SUDHL5. The data set can be described thus: Anti-proliferative effect (CellTiter-Glo, 72 h), SUDHL5. Particulars: SUDHL5 cells, antiproliferation, 72 h incubation, median, read-out: Antiproli SUDHL5 [M] (median). In kind it is cell-based. The procedure, abridged: as §1
[10] abbreviates: Homo sapiens, SU-DHL-5, 5 h, read-out: Cytotox SUDHL5 [M] (median), SUDHL5 cells, cytotoxicity induction, CellTiter-Glo, 5 h incubation, median.
The mark [11] stands for this setting: Homo sapiens, SU-DHL10, 5 h, read-out: Cytotox SUDHL10 [M] (median), SUDHL10 cells, cytotoxicity induction, CellTiter-Glo, 5 h incubation, median.
[12] abbreviates: read-out: Cytotox SUDHL10 [M] (median), SUDHL10 cells, cytotoxicity induction, CellTiter-Glo, 5 h incubation, median.
[13] abbreviates: read-out: Cytotox SUDHL5 [M] (median), SUDHL5 cells, cytotoxicity induction, CellTiter-Glo, 5 h incubation, median.

MCL-1, sequence (Q07820 whole entry): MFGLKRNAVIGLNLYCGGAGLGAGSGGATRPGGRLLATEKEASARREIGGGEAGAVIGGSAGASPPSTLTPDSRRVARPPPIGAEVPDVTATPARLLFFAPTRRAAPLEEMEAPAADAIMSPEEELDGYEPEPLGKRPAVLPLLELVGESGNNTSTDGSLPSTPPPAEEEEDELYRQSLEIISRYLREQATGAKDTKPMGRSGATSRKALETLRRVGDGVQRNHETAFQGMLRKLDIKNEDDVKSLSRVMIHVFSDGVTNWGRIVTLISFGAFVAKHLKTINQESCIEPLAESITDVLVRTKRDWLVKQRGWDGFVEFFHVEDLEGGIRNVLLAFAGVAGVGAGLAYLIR

With `CCN(CC)S(=O)(=O)N1CCN(c2ccc(OCc3nn(C)c4c3-c3cccc5c(CCCOc6cccc7ccccc67)c(C(=O)O)n(c35)CCCCOC4)cc2)CC1` (racemic) [Example 1-3, (rac)-3-({4-[4-(diethylsulfamoyl)piperazin-1-yl]phenoxy}methyl)-1-methyl-7-[3-(naphthalen-1-yloxy)propyl]-1,10,11,12,13,15-hexahydropyrazolo[4′,3′:9,10][1,6]oxazacycloundecino[8,7,6-hi]indole-8-carboxylic Acid], the IC50 worked out at 2.11e-06 M in data set [1] (Homo sapiens, OPM-2, 72 h); 1.9e-06 M in data set [2] (Homo sapiens, SU-DHL10, 72 h); 0.00378 µM in [3]; 2.68e-06 M in [4] (setting [10]); 4.86e-06 M in data set [6] (Homo sapiens, A2780, 72 h); 2.64e-06 M in [7] (setting [11]). In [9] (Homo sapiens, SU-DHL-5, 72 h), the IC50 worked out at 1.27e-06 M. The EC50 turned out to be 2 µM in data set [5] (Homo sapiens, SU-DHL-5, 3 h) and 2.36 µM in data set [8] (Homo sapiens, SU-DHL10, 3 h).

Consider `CN1CCN(c2ccc(OCc3nn(C)c4c3-c3cccc5c(CCCOc6cccc7ccccc67)c(C(=O)O)n(c35)CCCCOC4)cc2)CC1` (racemic) [Example 1-7, (rac)-1-methyl-3-{[4-(4-methylpiperazin-1-yl)phenoxy]methyl}-7-[3-(naphthalen-1-yloxy)propyl]-1,10,11,12,13,15-hexahydropyrazolo[4′,3′:9,10][1,6]oxazacycloundecino[8,7,6-hi]indole-8-carboxylic Acid], for which the IC50 in data set [1] (Homo sapiens, OPM-2, 72 h) was more than 3.3e-05 M; in data set [2] (Homo sapiens, SU-DHL10, 72 h), more than 3.3e-05 M; in data set [3], 0.0158 µM; in data set [4] (setting [10]), more than 3.3e-05 M; in [6] (Homo sapiens, A2780, 72 h), more than 3.3e-05 M; in data set [7] (setting [11]), 8.17e-06 M. Besides, in data set [9] (Homo sapiens, SU-DHL-5, 72 h), the IC50 worked out at 1.63e-06 M. Besides, the concentration giving a half-maximal response (EC50) was more than 33 µM in [5] (Homo sapiens, SU-DHL-5, 3 h) and more than 33 µM in data set [8] (Homo sapiens, SU-DHL10, 3 h).

`CN(C)S(=O)(=O)N1CCN(c2ccc(OCc3nn(C)c4c3-c3cccc5c(CCCOc6cccc7ccccc67)c(C(=O)O)n(c35)CCCCOC4)cc2)CC1` (racemic) [Example 1-18, (rac)-3-({4-[4-(dimethylsulfamoyl)piperazin-1-yl]phenoxy}methyl)-1-methyl-7-[3-(naphthalen-1-yloxy)propyl]-1,10,11,12,13,15-hexahydropyrazolo[4′,3′:9,10][1,6]oxazacycloundecino[8,7,6-hi]indole-8-carboxylic Acid]: the IC50 in data set [1] (Homo sapiens, OPM-2, 72 h) stood at 1.57e-06 M; in data set [2] (Homo sapiens, SU-DHL10, 72 h) it was 1.33e-06 M; in [4] (setting [10]), 1.75e-06 M; in [6] (Homo sapiens, A2780, 72 h), 8.79e-06 M; in data set [7] (setting [11]) it was 2.29e-06 M; in data set [9] (Homo sapiens, SU-DHL-5, 72 h), 9.33e-07 M. Also, the EC50 in data set [5] (Homo sapiens, SU-DHL-5, 3 h) stood at 1.22 µM; in data set [8] (Homo sapiens, SU-DHL10, 3 h), 1.94 µM.

Turning to `Cc1nn(C)c2c1-c1cccc3c(CCCOc4cccc5c4CCCC5)c(C(=O)O)n(c13)CCCCOC2` (racemic) [Example 006, (rac)-1,3-dimethyl-7-[3-(5,6,7,8-tetrahydronaphthalen-1-yloxy)propyl]-1,10,11,12,13,15-hexahydropyrazolo[4′,3′:9,10][1,6]oxazacycloundecino[8,7,6-hi]indole-8-carboxylic Acid], the IC50 in data set [1] (Homo sapiens, OPM-2, 72 h) was 1.9e-05 M; in data set [1] it was more than 3.3e-05 M; in [2] (Homo sapiens, SU-DHL10, 72 h), 4.99e-06 M; in data set [3], 0.00831 µM; in data set [4] (setting [10]), 7.28e-06 M; in [6], 2.49e-05 M. The IC50 in [6] (Homo sapiens, A2780, 72 h) is more than 3.3e-05 M; in data set [7] (setting [11]), 1.99e-05 M; in data set [7] (setting [12]) it was more than 3.3e-05 M; in [9] (Homo sapiens, SU-DHL-5, 72 h) it was 3.22e-06 M. It took 6.95 µM to reach a half-maximal effect in [5] (Homo sapiens, SU-DHL-5, 3 h) (EC50).

`CN1CCCn2c(C(=O)O)c(CCCOc3cccc4ccccc34)c3cccc(c32)-c2c(COc3ccc(-n4ccccc4=O)cc3)nn(C)c2C1` (single isomer, unassigned; enantiomer 1) [Example 1-115, 7,9-Dimethyl-1-[3-(1-naphthyloxy)propyl]-1-{[4-(2-oxopyridin-1(2H)-yl)phenoxy]methyl}-4,5,6,7,8,9-hexahydropyrazolo[3′,4′:7,8][1,5]diazecino[9,10,1-hi]indole-2-carboxylic Acid (Enantiomer 1)]: the IC50 in data set [1] (Homo sapiens, OPM-2, 72 h) was more than 3.3e-05 M; in data set [2] (Homo sapiens, SU-DHL10, 72 h), 1.24e-05 M; in [3] it was 0.0479 µM; in data set [4] (setting [13]) it was more than 3.3e-05 M; in [7] (setting [11]), more than 3.3e-05 M; in data set [9], 2.13e-05 M. The EC50 in data set [5] (Homo sapiens, SU-DHL-5, 3 h) was more than 33 µM; in data set [8] (Homo sapiens, SU-DHL10, 3 h) it was 32.9 µM.

On to `CN1CCCn2c(C(=O)O)c(CCCOc3cccc4ccccc34)c3cccc(c32)-c2c(COc3ccc(N4CCN(S(=O)(=O)N(C)C)CC4)cc3)nn(C)c2C1` (single isomer, unassigned; enantiomer 2) [Example 1-16, 11-({4-[4-(dimethylsulfamoyl)piperazin-1-yl]phenoxy}methyl)-7,9-dimethyl-1-[3-(naphthalen-1-yloxy)propyl]-4,5,6,7,8,9-hexahydropyrazolo[3′,4′:7,8][1,5]diazecino[9,10,1-hi]indole-2-carboxylic Acid (Enantiomer 2)], for which the IC50 in [1] was 1.15e-05 M; in [2] it was 5.63e-06 M; in data set [3], 0.0848 µM; in data set [4] (setting [13]), more than 3.3e-05 M; in [7] (setting [12]), more than 3.3e-05 M; in data set [9] it was 8.21e-06 M. For the same compound, the EC50 in data set [5] and in data set [8] was more than 33 µM in each case.

`CN1CCCn2c(C(=O)O)c(CCCOc3cccc4ccccc34)c3cccc(c32)-c2c(CN3CCOCC3)nn(C)c2C1` (single isomer, unassigned; enantiomer 2) [Example 1-44, (−)-7,9-dimethyl-11-(morpholin-4-ylmethyl)-1-[3-(naphthalen-1-yloxy)propyl]-4,5,6,7,8,9-hexahydropyrazolo[3′,4′:7,8][1,5]diazecino[9,10,1-hi]indole-2-carboxylic Acid (Enantiomer 2)]: the IC50 worked out at 1.13e-05 M in [1]; 7.73e-06 M in data set [2]; 0.0177 µM in [3]; 1.26e-05 M in [4] (setting [13]); 1.95e-05 M in data set [6]; 6.96e-06 M in data set [9]. The 50% effective concentration (EC50) in data set [5] was 12.4 µM; in [8] it was 9.76 µM.

Turning to `Cc1nn(C)c2c1-c1cccc3c(CCCOc4cccc5ccccc45)c(C(=O)O)n(c13)CCCCN2Cc1ccccc1` [Example 002, (rac)-8-benzyl-9,11-dimethyl-1-[3-(1-naphthyloxy)propyl]-4,5,6,7,8,9-hexahydropyrazolo[4′,3′:4,5][1,6]diazecino[3,2,1-hi]indole-2-carboxylic Acid], the IC50 in data set [1] (Homo sapiens, OPM-2, 72 h) was more than 3.3e-05 M; in data set [2] (Homo sapiens, SU-DHL10, 72 h) it was 6.26e-06 M; in data set [3], 0.353 µM; in data set [4] (setting [10]), 2.12e-05 M; in data set [7] (setting [11]), 3.18e-05 M; in [9] (Homo sapiens, SU-DHL-5, 72 h), 1.42e-05 M. The EC50 is more than 33 µM in [5] (Homo sapiens, SU-DHL-5, 3 h) and 22.4 µM in data set [8] (Homo sapiens, SU-DHL10, 3 h).

Turning to `Cc1nn(C)c2c1-c1cccc3c(CCCOc4cccc5ccccc45)c(C(=O)O)n(c13)CCCCN2` [Example 003, (rac)-9,11-dimethyl-1-[3-(1-naphthyloxy)propyl]-4,5,6,7,8,9-hexahydropyrazolo[4′,3′:4,5][1,6]diazecino[3,2,1-hi]indole-2-carboxylic Acid], the IC50 is more than 3.3e-05 M in [1] (Homo sapiens, OPM-2, 72 h); 1.54e-05 M in [2] (Homo sapiens, SU-DHL10, 72 h); 0.0433 µM in data set [3]; more than 3.3e-05 M in data set [4] (setting [10]); more than 3.3e-05 M in [7] (setting [11]); more than 3.3e-05 M in [9] (Homo sapiens, SU-DHL-5, 72 h). The concentration for a half-maximal effect (EC50) in data set [5] (Homo sapiens, SU-DHL-5, 3 h) was more than 33 µM; in data set [8] (Homo sapiens, SU-DHL10, 3 h) it was 29.1 µM.
